Experiments:
[1] = target: T1, CD11b A-domain (αA-domain) (Homo sapiens, UniProt P11215); assay: αA-domain ligand-binding assay (GST-αA-domain to immobilized Fg); details: to level of activating mutant I316G
T1 construct: protein fragments spanning residues Gly^111-Gly^321 (321WT); made in house; host or cells: Escherichia coli
From the text: Purification of recombinant CD11b A-Domain (.Alpha.A-Domain). Recombinant human aA-domains were constructed and purified according to published protocols. […] The aA-domain in its active conformation was generated by replacing Ile^316 with Gly (1316G [55]) using forward primer 5′-[…]-3′ (SEQ ID NO: 3) and reverse primer 5′-[…]-3′ (SEQ ID NO: 4). The insert was digested with BamHI and SmaI and ligated into pGEX-2T vector also digested with BamHI and SmaI. All constructs were confirmed by direct DNA sequencing. All recombinant proteins were expressed as glutathione S-transferase (GST) fusion proteins in Escherichia coli and purified by affinity chromatography (Glutathione-beads, Sigma) following manufacturer's instructions. Purified protein preparations were dialyzed against 20 mm Tris-HCl, pH 7.5, 150 mm NaCl (Tris-buffered saline) and subsequently concentrated using Amicon-10 columns (Millipore) and stored at −80° C. […]
Maxisorp 96-well plates were coated with Fg (1 μg/well) in 10 mM PBS, pH 7.4 overnight and blocked with 1% bovine serum albumin in PBS. […] Subsequently, the amount of bound protein was determined by incubating with anti-GST antibody conjugated to horseradish peroxidase (GE, Piscataway, N.J.) (1:2000 dilution) for 1 hr. […] Absorbance was read using Spectromax M5 spectrophotometer (Molecular Devices, Sunnyvale, Calif.). […]

[2] = target: T2, integrin CD11b/CD18 (Homo sapiens, UniProt P11215); assay: K562 CD11b/CD18 cell adhesion to immobilized iC3b; type: cell-based; details: increasing amounts of compound
T2 construct: expressed in transfected cells; host or cells: K562
Protocol: Cell adhesion assays with immobilized ligands were performed as previously described. Assays with all different K562 cell lines (K562, K562 CD11b/CD18 and K562 E320A) were performed in an identical fashion. Briefly, 384-well Highbind microtiter plates were coated with a 30 μL solution of ligand in Phosphate Buffered Saline, pH 7.4 containing 1 mM each of Ca^2+ and Mg^2+ ions (PBS^++) overnight at 4° C. Ligand Fg was coated at a concentration of […] and iC3b at […]. Heterodimer specific mAb IB4 (ascites) was coated at a 1:100 dilution. Subsequently, the non-specific sites in the wells were blocked by incubation with 1% non-fat milk in Tris Buffered Saline (TBS), pH 7.4, at room temperature for 1 h, except for the neutrophil assay, where the wells were blocked with TBS containing 1% gelatin. Next, the wells were washed three times with TBS. K562 cells were suspended in the assay buffer (TBS containing 1 mM each of Ca^2+ and Mg^2+ ions (TBS^++)) and were transferred to the ligand-coated wells (30,000 cells/well). Stock solution of the leukadherin family of small molecule agonists was prepared by dissolving the compounds in DMSO at a concentration of 2-10 mM. Final concentration of DMSO in the assay was approximately 1%. […] Cells remaining adherent were fixed using formaldehyde and were quantitated using imaging microscopy, as previously described. […]

[3] = test system: WT mouse macrophages and neutrophils; assay: Secretion of pro-inflammatory cytokines by stimulated WT mouse macrophages and neutrophils; type: cell-based; details: cells stimulated with LPS, TNFalpha or ILbeta
From the text: We surmised that leukadherins may also suppress pro-inflammatory cytokine express-ion in leukocytes. […] In an experiment to test the effect of leukadherin treatment on secretion of pro-inflammatory cytokines by leukocytes, we stimulated WT mouse macrophages and neutrophils with LPS, TNFalpha or ILbeta in the absence or presence of two different concentrations of agonist LA1 and measured levels of pro-inflammatory cytokine in the cell supernatant. […] Leukadherins decrease secretion of pro-inflammatory factors, including microparticles, by beta2-integrin expressing cells. Additionally, they increase secretion of anti-inflammatory factors, such as IL-10.

[4] = test system: Fischer 344 rats; assay: Balloon induced arterial injury in rats; type: in vivo, rat
From the text: All surgeries were under isoflurane anaesthesia (Baxter, Ill., USA). Balloon injury in the right iliac artery was inflicted with a 2F Fogarty catheter (Baxter Corp., Irvine, Calif., USA) adapted to a custom angiographic kit (Boston Scientific, Scimed). An aortotomy in the abdominal aorta was made to insert a 2F Fogarty embolectomy catheter to the level of the right iliac artery. The balloon was inflated to 1.5-1.6 atmospheres and retracted to the arteriotomy site three times. The aortic excision was repaired with 8.0 sutures. The abdominal cavity was closed by planes using interrupted suture pattern. Arterial specimens were collected 3-30 days after injury and fixed in 4% formalin-PBS (Sigma-Aldrich, St. Louis, Mo.) for 5 min and analyzed by histology and immunostaining
Elastica van Gieson staining was used for histochemical analyses to evaluate neointima formation. Morphometric analyses was performed in a blinded fashion using NIH ImageJ. Immunostaining with anti-rat CD68 (1:50, AbD Serotec) for the detection of macrophages in the tissue.
Leukocyte recruitment precedes neointimal thickening and restenosis following percutaneous transluminal coronary angioplasty (PTCA). […]

O=C(O)c1ccc(-c2ccc(/C=C3\SC(=S)N(Cc4ccccc4)C3=O)o2)cc1 [LA1]
binding of the WT αA to the immobilized ligand [1]: increased binding | K562 CD11b/CD18 cells adhering to immobilized iC3b [2]: increase binding of CD11b/CD18 to iC3b in a dose-dependent fashion | secretion of inflammatory factors (IL-6, TNFa, IL-1b, IFNg, MMP-9, soluble uPAR) in supernatant [3]: significantly decreased | neointima to media ratio ([4]; rat arteries 21 days after balloon injury, vehicle 0.23±0.01): 0.16±0.02 | number of medial macrophages (CD68) ([4]; rat arteries three days post-injury, vehicle 42.2±6.7): 17.7±3.1
